# Reference: ChEMBL document CHEMBL5257044, “Arylnaphthalene Lignans with Anti-SARS-CoV-2 and Antiproliferative Activities from the Underground Organs of Linum austriacum and Linum perenne” (J Nat Prod, 2023)
# What was measured:
# NCI-H838 = assay: Cytotoxicity against human NCI-H838 cells incubated for 24 hrs by AlamarBlue staining based analysis; type: functional, cell-based; details: NCI-H838, 24 h
# A549 [1] = assay: Cytotoxicity against human A549 cells incubated for 24 hrs by AlamarBlue staining based analysis; type: functional, cell-based; details: A549, 24 h
# Calu-1 = assay: Cytotoxicity against human Calu-1 cells incubated for 24 hrs by AlamarBlue staining based analysis; type: functional, cell-based; details: Calu-1, 24 h
# BGC-823 = assay: Cytotoxicity against human BGC-823 cells assessed as reduction in cell viability measured after 4 days by MTT colorimetric assay; type: functional, cell-based; details: BGC-823, 96 h
# HepG2 = assay: Cytotoxicity against human HepG2 cells incubated for 24 hrs by AlamarBlue staining based analysis; type: functional, cell-based; details: HepG2, 24 h
# MONO-MAC-6 = assay: Cytotoxicity against human MONO-MAC-6 cells incubated for 24 hrs by AlamarBlue staining based analysis; type: functional, cell-based; details: MONO-MAC-6, 24 h
# PC-3 = assay: Cytotoxicity against human PC-3 cells incubated for 24 hrs by AlamarBlue staining based analysis; type: functional, cell-based; details: PC-3, 24 h
# [2] = Cytotoxicity against human U87 cells incubated for 24 hrs by AlamarBlue staining based analysis; type: functional, cell-based, U-87MG ATCC; details: U-87 MG
# SARS-CoV-2 [3] = assay: Antiviral activity against SARS-COV2 EPI_ISL_1172022 infected in african green monkey Vero E6 cells assessed as log reduction in viable virus at 12.5 uM incubated for 48 hrs by RT-qPCR analysis; type: functional, Severe acute respiratory syndrome coronavirus 2
# SARS-CoV-2 [4] = assay: Antiviral activity against SARS-COV2 EPI_ISL_1172022 infected in african green monkey Vero E6 cells assessed as inhibition of viral replication incubated for 48 hrs by RT-qPCR analysis; type: functional, organism-based; details: Severe acute respiratory syndrome coronavirus 2, EPI_ISL_1172022, Vero C1008, 48 h
# A2058 = assay: Cytotoxicity against human A2058 cells incubated for 24 hrs by AlamarBlue staining based analysis; type: functional, cell-based; details: A2058, 24 h
# EBC-1 = assay: Cytotoxicity against human EBC-1 cells incubated for 24 hrs by AlamarBlue staining based analysis; type: functional, cell-based; details: EBC-1, 24 h
# RPMI-8226 = assay: Cytotoxicity against human RPMI-8226 cells assessed as reduction in cell viability measured after 72 hrs by MTT assay; type: functional, cell-based; details: RPMI-8226, 72 h
# HT-29 = assay: Cytotoxicity against human HT-29 cells incubated for 24 hrs by AlamarBlue staining based analysis; type: functional, cell-based; details: HT-29, 24 h
# A549 [5] = assay: Cytotoxicity against human A549 cells incubated for 24 hrs by MTS assay; type: functional, cell-based; details: A549, 24 h
# ECa-109 cell line = assay: Antiproliferative activity against human Eca-109 cells measured after 2 days by CCK-8 method; type: functional, cell-based; details: ECa-109, 48 h
# TE-1 = assay: Antiproliferative activity against human TE-1 cells measured after 2 days by CCK-8 method; type: functional, cell-based; details: TE-1, 48 h
# A549 [6] = assay: Cytotoxicity against human A549 cells measured after 3 days by MTT assay; type: functional, cell-based; details: A549, 72 h
# [7] = Cytotoxicity against African green monkey Vero E6 cells incubated for 48 hrs by CCK-8 assay; type: toxicity, cell-based, Vero C1008; details: African green monkey (Chlorocebus sabaeus)
# SARS-CoV-2 [8] = assay: Antiviral activity against SARS-COV2 infected in african green monkey Vero E6 cells assessed as inhibition of viral replication incubated for 48 hrs by plague assay; type: functional, organism-based; details: Severe acute respiratory syndrome coronavirus 2, Vero C1008, 48 h
SMILES,IC50 (NCI-H838) [µM],IC50 (A549 [1]) [µM],IC50 (Calu-1) [µM],IC50 (BGC-823) [µM],IC50 (HepG2) [µM],IC50 (MONO-MAC-6) [µM],IC50 (PC-3) [µM],IC50 [2] [µM],log(activity) (SARS-CoV-2 [3]),IC50 (SARS-CoV-2 [4]) [µM],IC50 (A2058) [µM],IC50 (EBC-1) [µM],IC50 (RPMI-8226) [µM],IC50 (HT-29) [µM],IC50 (A549 [5]) [µM],IC50 (ECa-109 cell line) [µM],IC50 (TE-1) [µM],IC50 (A549 [6]) [µM],IC50 at 48 h [7] [µM],IC50 (SARS-CoV-2 [8]) [µM]
COc1cc2cc3c(c(-c4ccc5c(c4)OCO5)c2cc1OC)C(=O)OC3,11,11.4,18.5,0.18,16.8,2.5,5.7,21.6,>3,> 100,8.9,63.2,0.17,5.9,,,,,,
COc1cc2cc(COC(=O)CC(=O)O)c(C(=O)O)c(-c3ccc4c(c3)OCO4)c2cc1OC,> 100,> 100,> 100,,> 100,70.1,32.8,> 100,,> 100,25.1,16,,> 100,,,,,,
COc1cc2cc(COC(=O)CC(=O)O)c(C(=O)O[C@@H]3O[C@H](COC(=O)CC(C)(O)CC(=O)O)[C@@H](O)[C@H](O)[C@H]3O)c(-c3ccc4c(c3)OCO4)c2cc1OC (some centres not stated),16,26.3,67,,> 100,7.1,3.2,> 100,,> 100,2.4,19.2,,19.9,,,,,,
CCN(CC)CCCC(C)Nc1ccnc2cc(Cl)ccc12 (configuration not stated) [CHLOROQUINE],,,,,,,,,,50.2,,,,,,,,,,
COc1cc2c(O)c3c(c(-c4ccc5c(c4)OCO5)c2cc1OC)C(=O)OC3 [DIPHYLLIN],16,8.8,31.8,,21.6,3.9,3.8,26.1,>3,> 100,2.6,14.8,,19.5,2.02,0.21,0.28,24,> 100,1.92
COc1cc([C@@H]2c3cc4c(cc3[C@@H](O[C@@H]3O[C@@H]5CO[C@@H](C)O[C@H]5[C@H](O)[C@H]3O)[C@H]3COC(=O)[C@H]23)OCO4)cc(OC)c1O [ETOPOSIDE],> 100,> 100,> 100,,20.9,2.2,8,27,,,8.9,15.7,,18.5,,,,,,
CC(C)C(=O)OC[C@H]1O[C@@H](n2cc/c(=N\O)[nH]c2=O)[C@H](O)[C@@H]1O [MOLNUPIRAVIR],,,,,,,,,,> 100,,,,,,,,,,
CC(=O)Oc1ccccc1C(=O)Nc1ncc([N+](=O)[O-])s1 [NITAZOXANIDE],,,,,,,,,,82.7,,,,,,,,,,
